Source: ChEMBL document CHEMBL1150094, “Cacospongionolide B, a new sesterterpene from the sponge Fasciospongia cavernosa” (J Nat Prod, 1995)
≈ marks a conversion by molar mass, not a printed value.

Tests used:
Bacillus subtilis = experiment: Antimicrobial activity against Bacillus subtilis DSM 347; type: functional
Artemia salina = experiment: Toxicity against Artemia salina; type: organism-based; details: in vivo
Micrococcus luteus = experiment: Antimicrobial activity against Micrococcus luteus DSM 348; type: functional

Q: With `C=C1CCC[C@H]2[C@](C)(CCC3=CCC(C4=CC(=O)OC4O)OC3)[C@H](C)CC[C@]12C` (stereo partly drawn) [CACOSPONGIONOLIDE B] as the compound, how does the MIC (Bacillus subtilis) read?
A: 0.78 mg/L (≈ 1.95 µM)

Q: And the LC50 (Artemia salina)?
A: 0.25 ppm

Q: And the MIC (Micrococcus luteus)?
A: 0.78 mg/L (≈ 1.95 µM)
